# Source: US10233174B2 (THERAVANCE BIOPHARMA R&D IP, LLC, priority 2017, dated 2019)
# Biological target: β-glucuronidase (Escherichia coli, UniProt P05804)
# Assay: Assay 11: Release of H2S and Tofacitinib (incubation with β-glucuronidase and monobromobimane)
# Type: in vitro ADME
# Conditions: 50 μM compound 1, β-glucuronidase 100 units/mL, MBB 100 μM, pH 7.4, 37° C.
# Procedure: The method used to detect H2S was previously described in Tan et al., Nature Scientific Reports, 2017, 7:46278, DOI: 10.1038/srep46278.
# Compound 1 (50 μM) was incubated with β-glucuronidase (100 units/mL) and monobromobimane (MBB, 100 μM) in potassium phosphate buffer pH 7.4 (100 mM) for 60 min at 37° C. In addition, incubations were carried out with and without a) β-glucuronidase and b) MBB as negative control. Incubation of SN38-Glucuronide was also carried out with β-glucuronidase as a positive control for β-glucuronidase activity. The reactions were terminated at 60 min by the addition of three volumes of ice-cold acetonitrile to the incubation mixture. The incubation samples were centrifuged (4° C., 2200×g, 10 minutes) and the supernatants were transferred to amber HLPC vials. All samples were stored at 4° C. until the analysis. The samples were analyzed using a Thermo Orbitrap LC-MS/MS system.
# H2S was trapped using monobromobimane (MBB) to form sulfide dibimane (SDB).
# β-glucuronidase, sequence (P05804 whole entry): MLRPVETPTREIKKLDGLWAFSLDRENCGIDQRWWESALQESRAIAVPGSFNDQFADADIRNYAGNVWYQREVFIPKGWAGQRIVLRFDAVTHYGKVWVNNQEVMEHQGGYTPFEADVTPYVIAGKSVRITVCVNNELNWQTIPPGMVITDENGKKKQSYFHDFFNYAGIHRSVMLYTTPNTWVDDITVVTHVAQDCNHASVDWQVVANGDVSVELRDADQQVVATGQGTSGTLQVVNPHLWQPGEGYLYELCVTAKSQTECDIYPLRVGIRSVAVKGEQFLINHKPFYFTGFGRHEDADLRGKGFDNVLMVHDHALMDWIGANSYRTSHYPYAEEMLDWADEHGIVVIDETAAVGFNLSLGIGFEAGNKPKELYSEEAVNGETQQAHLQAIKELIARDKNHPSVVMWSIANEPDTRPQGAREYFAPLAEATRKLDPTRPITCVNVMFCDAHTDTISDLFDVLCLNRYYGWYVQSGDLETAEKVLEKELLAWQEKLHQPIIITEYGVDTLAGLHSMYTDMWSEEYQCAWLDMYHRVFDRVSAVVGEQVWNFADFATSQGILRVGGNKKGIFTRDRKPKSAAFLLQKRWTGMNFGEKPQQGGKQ
compound,measurement,value
"C[C@@H]1CCN(C(=O)CC#N)C[C@@H]1N(C)c1ncnc2c1ccn2C(=O)N(C)CCN(C)C(=S)OCc1ccc(O[C@@H]2O[C@H](C(=O)O)[C@@H](O)[C@H](O)[C@H]2O)c([N+](=O)[O-])c1 [Compound 1, (2S,3S,4S,5R,6S)-6-(4-((((2-(4-(((3R,4R)-1-(2-cyanoacetyl)-4-methylpiperidin-3-yl)(methyl)amino)-N-methyl-7H-pyrrolo[2,3-d]pyrimidine-7-carboxamido)ethyl)(methyl)carbamothioyl)oxy)methyl)-2-nitrophenoxy)-3,4,5-trihydroxytetrahydro-2H-pyran-2-carboxylic acid]",% (MS Peak Area) (60 min) of compound 1 (Parent) remaining,0%
